# Assay results reported in patent publication US20080009418A1, “Selective Inhibitors” (Alchemia LTD., priority 2004, published 2008).
# Tests used:
# Human δ-opioid (DOP) = biological target: T1, Human δ-opioid (DOP) (Homo sapiens, UniProt P41143); experiment: Radioligand binding, human δ-opioid (DOP) membranes, FlashPlate, [3H]-Bremazocine; details: compound at 10 μM, [3H]-Bremazocine
# T1 construct: purchased Perkin Elmer Biosignal
# How it was run: (§1)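 Cloned human receptor membranes were coated onto FlashPlate wells and incubated with radioligand and compound (added from a 0.5 mM DMSO daughter plate) for 1 hour at room temperature in the dark. Scintillation counting gave percent inhibition, with DMSO defining total and reference ligand defining non-specific binding.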
# Human μ-opioid (MOP) = biological target: T2, Human μ-opioid (MOP) (Homo sapiens, UniProt P35372); experiment: Radioligand binding, human μ-opioid (MOP) membranes, FlashPlate, [3H]-Naloxone; details: compound at 10 μM, [3H]-Naloxone
# T2 construct: purchased Perkin Elmer Biosignal
# How it was run: as §1
# [1] = biological target: T3, Human neuropeptide Y (NPY-Y1) (Homo sapiens, UniProt P25929); experiment: Radioligand binding, human neuropeptide Y NPY-Y1 membranes, FlashPlate, [125I]-PYY; details: compound at 10 μM, [125I]-PYY
# T3 construct: purchased Perkin Elmer Biosignal
# T3 sequence (P25929 1-384): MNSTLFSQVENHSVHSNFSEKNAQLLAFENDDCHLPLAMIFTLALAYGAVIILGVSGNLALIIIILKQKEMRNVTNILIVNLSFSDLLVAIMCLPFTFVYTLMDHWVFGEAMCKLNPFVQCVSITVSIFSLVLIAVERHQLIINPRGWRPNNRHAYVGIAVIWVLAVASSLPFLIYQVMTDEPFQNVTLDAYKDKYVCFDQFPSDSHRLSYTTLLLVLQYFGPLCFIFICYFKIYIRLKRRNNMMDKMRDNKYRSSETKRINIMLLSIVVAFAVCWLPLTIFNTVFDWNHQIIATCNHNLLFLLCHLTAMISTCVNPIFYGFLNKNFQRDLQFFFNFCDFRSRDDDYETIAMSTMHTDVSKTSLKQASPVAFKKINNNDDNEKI
# How it was run: as §1
# Human Melanocortin (MC3) = biological target: T4, Human Melanocortin (MC3) (Homo sapiens, UniProt P41968); experiment: Radioligand binding, human melanocortin MC3 membranes, FlashPlate, [125I]-NDP-αMSH; details: compound at 10 μM, [125I]-NDP-αMSH
# T4 construct: purchased Perkin Elmer Biosignal
# How it was run: as §1
# [2] = biological target: T5, Human melanin-concentrating hormone (MCH1) (Homo sapiens, UniProt Q99705); experiment: Radioligand binding, human melanin-concentrating hormone MCH1 membranes, FlashPlate, [125I]-S36057; details: compound at 10 μM
# T5 construct: purchased Perkin Elmer Biosignal
# How it was run: as §1
# Human Melanocortin (MC4) = biological target: T6, Human Melanocortin (MC4) (Homo sapiens, UniProt P32245); experiment: Radioligand binding, human melanocortin MC4 membranes, FlashPlate, [125I]-NDP-αMSH; details: compound at 10 μM, [125I]-NDP-αMSH
# T6 construct: purchased Perkin Elmer Biosignal
# How it was run: as §1
# Human neurokinin (NK1) = biological target: T7, Human neurokinin (NK1) (Homo sapiens, UniProt P25103); experiment: Radioligand binding, human neurokinin NK1 membranes, filtration, [125I]-Substance P; details: compound at 10 μM, [125I]-Substance P
# T7 construct: purchased Perkin Elmer Biosignal
# How it was run: (§2)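 Percent inhibition of radioligand binding measured on recombinant human membranes: NK1 with [125I]-Substance P, KOP with [3H]-Diprenorphine. Incubation 1 h at room temperature, then harvest onto 0.3% PEI-soaked filters, cold Tris-HCl pH 7.4 washes and scintillation counting; non-specific binding from reference ligand wells.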
# Human κ-Opioid (KOP) = biological target: T8, Human κ-Opioid (KOP) (Homo sapiens, UniProt P41145); experiment: Radioligand binding, human κ-opioid (KOP) membranes, filtration, [3H]-Diprenorphine; details: compound at 10 μM, [3H]-Diprenorphine
# T8 construct: purchased Perkin Elmer Biosignal
# How it was run: as §2
# Mouse urotensin (mUR2) = biological target: T9, Mouse urotensin (mUR2) (Mus musculus, UniProt Q8VIH9); experiment: Radioligand binding, mouse urotensin mUR2 membranes, FlashPlate, [125I]-Urotensin II; details: compound at 10 μM, [125I]-Urotensin II
# T9 construct: purchased Perkin Elmer Biosignal
# T9 sequence (Q8VIH9 1-385): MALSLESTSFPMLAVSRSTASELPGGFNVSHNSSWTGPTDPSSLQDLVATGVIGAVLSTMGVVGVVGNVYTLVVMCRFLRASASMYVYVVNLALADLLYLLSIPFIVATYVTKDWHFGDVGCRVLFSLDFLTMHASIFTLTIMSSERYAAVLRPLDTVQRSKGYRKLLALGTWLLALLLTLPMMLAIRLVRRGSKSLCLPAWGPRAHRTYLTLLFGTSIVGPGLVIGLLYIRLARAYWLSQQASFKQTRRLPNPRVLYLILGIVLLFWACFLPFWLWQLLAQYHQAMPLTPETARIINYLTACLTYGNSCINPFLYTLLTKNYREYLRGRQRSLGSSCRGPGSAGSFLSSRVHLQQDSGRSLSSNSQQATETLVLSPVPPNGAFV
# How it was run: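 Cloned mouse urotensin (mUR2) receptor membranes from Perkin Elmer Biosignal were immobilized in FlashPlate microplates using a proprietary coating. Each well got 19.5 μl buffer, then 0.5 μl of DMSO, reference ligand, or compound. Adding 5 μl of [125I]-Urotensin II, diluted to 5× final concentration in binding buffer, started binding. Plates were sealed with TopSeal-A and incubated 1 hour at room temperature in the dark. Wells were counted for 30 seconds each on a TopCount after a 60-second delay, and percentage inhibition was calculated.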
# Human opioid (ORL1) = biological target: T10, Human opioid (ORL1) (Homo sapiens, UniProt P41146); experiment: Radioligand binding, human opioid ORL1 membranes, FlashPlate, [125I]-Nociceptin; details: compound at 10 μM, [125I]-Nociceptin
# T10 construct: purchased Perkin Elmer Biosignal
# How it was run: as §1
# Human melanocortin (MC5) = biological target: T11, Human melanocortin (MC5) (Homo sapiens, UniProt P33032); experiment: Radioligand binding, human melanocortin MC5 membranes, FlashPlate, [125I]-NDP-αMSH; details: compound at 10 μM, [125I]-NDP-αMSH
# T11 construct: purchased Perkin Elmer Biosignal
# How it was run: as §1
# [3] = [125I]-S36057, human MCH1 membranes
# T11 sequence (P33032 whole entry): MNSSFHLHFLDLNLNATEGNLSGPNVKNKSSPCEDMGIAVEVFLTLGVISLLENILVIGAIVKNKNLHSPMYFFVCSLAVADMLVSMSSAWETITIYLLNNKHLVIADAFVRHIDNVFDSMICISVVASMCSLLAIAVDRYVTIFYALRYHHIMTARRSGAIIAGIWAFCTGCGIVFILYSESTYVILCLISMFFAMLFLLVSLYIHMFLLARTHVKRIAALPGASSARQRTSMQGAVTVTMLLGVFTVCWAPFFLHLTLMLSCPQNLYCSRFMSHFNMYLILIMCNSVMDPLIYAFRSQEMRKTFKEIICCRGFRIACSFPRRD
# T2 sequence (P35372 whole entry): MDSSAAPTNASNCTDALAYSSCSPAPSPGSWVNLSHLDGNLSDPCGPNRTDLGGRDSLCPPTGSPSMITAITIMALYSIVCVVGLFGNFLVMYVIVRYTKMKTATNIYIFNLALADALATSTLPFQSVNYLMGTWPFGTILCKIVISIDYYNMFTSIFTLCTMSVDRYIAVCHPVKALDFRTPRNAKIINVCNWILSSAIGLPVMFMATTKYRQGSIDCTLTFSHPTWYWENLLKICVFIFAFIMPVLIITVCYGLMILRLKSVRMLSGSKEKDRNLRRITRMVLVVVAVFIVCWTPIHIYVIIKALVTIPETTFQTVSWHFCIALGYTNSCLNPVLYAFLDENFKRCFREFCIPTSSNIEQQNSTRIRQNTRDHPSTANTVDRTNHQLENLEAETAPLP
# T10 sequence (P41146 whole entry): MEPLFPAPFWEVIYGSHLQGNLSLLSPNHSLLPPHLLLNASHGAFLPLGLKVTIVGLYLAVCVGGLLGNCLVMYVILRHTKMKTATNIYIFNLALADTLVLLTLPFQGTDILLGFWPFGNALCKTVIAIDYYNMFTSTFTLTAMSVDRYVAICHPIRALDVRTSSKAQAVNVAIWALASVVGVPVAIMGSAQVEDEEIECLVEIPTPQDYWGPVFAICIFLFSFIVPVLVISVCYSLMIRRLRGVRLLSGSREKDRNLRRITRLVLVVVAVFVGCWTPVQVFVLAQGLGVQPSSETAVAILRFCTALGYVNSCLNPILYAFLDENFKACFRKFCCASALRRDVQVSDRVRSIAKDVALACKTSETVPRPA
# T6 sequence (P32245 whole entry): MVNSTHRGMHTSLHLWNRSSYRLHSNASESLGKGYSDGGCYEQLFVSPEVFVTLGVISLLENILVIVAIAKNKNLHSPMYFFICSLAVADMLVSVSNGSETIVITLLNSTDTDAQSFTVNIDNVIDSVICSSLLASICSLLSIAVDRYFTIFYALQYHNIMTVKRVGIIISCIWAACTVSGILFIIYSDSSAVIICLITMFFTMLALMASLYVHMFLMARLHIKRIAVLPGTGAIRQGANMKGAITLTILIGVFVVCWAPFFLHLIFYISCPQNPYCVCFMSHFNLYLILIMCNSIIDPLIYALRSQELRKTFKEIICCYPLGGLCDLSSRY
# T8 sequence (P41145 whole entry): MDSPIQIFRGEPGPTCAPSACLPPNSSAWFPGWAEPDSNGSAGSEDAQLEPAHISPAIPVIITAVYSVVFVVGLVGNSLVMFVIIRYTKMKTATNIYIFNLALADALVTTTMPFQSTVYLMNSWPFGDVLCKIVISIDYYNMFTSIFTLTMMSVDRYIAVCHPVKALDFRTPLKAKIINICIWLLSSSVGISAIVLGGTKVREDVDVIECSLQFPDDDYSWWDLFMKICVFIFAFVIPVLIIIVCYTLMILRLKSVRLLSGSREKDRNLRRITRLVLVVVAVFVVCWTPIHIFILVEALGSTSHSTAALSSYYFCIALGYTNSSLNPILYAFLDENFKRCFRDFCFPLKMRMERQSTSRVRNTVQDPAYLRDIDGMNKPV
# T1 sequence (P41143 whole entry): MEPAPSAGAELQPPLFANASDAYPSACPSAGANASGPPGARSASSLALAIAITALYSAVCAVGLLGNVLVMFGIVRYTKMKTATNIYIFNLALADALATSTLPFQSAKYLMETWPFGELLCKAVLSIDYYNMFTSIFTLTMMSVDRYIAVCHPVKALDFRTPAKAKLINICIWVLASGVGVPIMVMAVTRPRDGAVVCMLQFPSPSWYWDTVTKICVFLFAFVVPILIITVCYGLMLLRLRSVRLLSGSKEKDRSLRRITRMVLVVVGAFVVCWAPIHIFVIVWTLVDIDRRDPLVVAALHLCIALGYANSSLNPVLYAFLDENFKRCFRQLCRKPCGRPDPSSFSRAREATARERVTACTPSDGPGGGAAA
# T5 sequence (Q99705 whole entry): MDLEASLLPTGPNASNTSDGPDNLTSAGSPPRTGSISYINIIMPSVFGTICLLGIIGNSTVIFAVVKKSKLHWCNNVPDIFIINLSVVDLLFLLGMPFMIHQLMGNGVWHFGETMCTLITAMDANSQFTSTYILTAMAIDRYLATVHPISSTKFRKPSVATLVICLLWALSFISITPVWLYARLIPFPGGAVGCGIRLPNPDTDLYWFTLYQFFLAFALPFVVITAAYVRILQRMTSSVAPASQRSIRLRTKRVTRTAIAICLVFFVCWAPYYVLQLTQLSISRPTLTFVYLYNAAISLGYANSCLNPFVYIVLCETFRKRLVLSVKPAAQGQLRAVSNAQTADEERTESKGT
# T4 sequence (P41968 whole entry): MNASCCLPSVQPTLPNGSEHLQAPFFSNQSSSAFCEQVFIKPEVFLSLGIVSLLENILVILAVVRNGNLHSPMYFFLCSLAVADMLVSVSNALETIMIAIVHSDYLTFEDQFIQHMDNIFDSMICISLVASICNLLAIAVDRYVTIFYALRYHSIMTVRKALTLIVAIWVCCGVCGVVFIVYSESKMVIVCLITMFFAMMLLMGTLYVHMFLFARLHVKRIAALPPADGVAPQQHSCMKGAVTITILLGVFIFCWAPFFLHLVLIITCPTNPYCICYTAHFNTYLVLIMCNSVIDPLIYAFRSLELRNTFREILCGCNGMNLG
# T7 sequence (P25103 whole entry): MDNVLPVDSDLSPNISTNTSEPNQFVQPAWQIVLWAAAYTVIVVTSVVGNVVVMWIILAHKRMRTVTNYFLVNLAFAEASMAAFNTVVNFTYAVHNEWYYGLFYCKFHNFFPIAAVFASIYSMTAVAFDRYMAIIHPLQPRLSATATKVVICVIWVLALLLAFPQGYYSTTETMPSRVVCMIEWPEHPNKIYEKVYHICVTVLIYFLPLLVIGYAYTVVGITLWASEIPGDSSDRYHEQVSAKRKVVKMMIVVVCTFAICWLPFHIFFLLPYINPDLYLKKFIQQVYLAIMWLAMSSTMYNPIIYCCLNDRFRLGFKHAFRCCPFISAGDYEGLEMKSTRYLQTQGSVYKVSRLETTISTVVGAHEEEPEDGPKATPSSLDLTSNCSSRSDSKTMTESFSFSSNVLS
SMILES,A1: inhibition of radioligand binding (Human δ-opioid (DOP); human DOP membranes),A7: inhibition of radioligand binding (Human μ-opioid (MOP); human MOP membranes),A9: inhibition of radioligand binding ([1]; human NPY-Y1 membranes),A3: inhibition of radioligand binding (Human Melanocortin (MC3); human MC3 membranes),"A6: inhibition of radioligand binding [2, 3]",A4: inhibition of radioligand binding (Human Melanocortin (MC4); human MC4 membranes),A8: inhibition of radioligand binding (Human neurokinin (NK1); human NK1 membranes),A2: inhibition of radioligand binding (Human κ-Opioid (KOP); human KOP membranes),A11: inhibition of radioligand binding (Mouse urotensin (mUR2); mouse mUR2 membranes),A10: inhibition of radioligand binding (Human opioid (ORL1); human ORL1 membranes),A5: inhibition of radioligand binding (Human melanocortin (MC5); human MC5 membranes),A1: inhibition of radioligand binding (Human δ-opioid (DOP); FlashPlate),A7: inhibition of radioligand binding (Human μ-opioid (MOP); FlashPlate),A9: inhibition of radioligand binding ([1]; FlashPlate),A3: inhibition of radioligand binding (Human Melanocortin (MC3); FlashPlate),"A6: inhibition of radioligand binding ([2]; [125I]-S36057, FlashPlate)",A4: inhibition of radioligand binding (Human Melanocortin (MC4); FlashPlate),A8: inhibition of radioligand binding (Human neurokinin (NK1); filtration),A2: inhibition of radioligand binding (Human κ-Opioid (KOP); filtration),A11: inhibition of radioligand binding (Mouse urotensin (mUR2); FlashPlate),further results
N=C(N)NCC(=O)NC1C(OCc2ccc(-c3ccccc3)cc2)OC(COCc2ccc3ccccc3c2)C(O)C1OCc1ccc2ccccc2c1 (stereo not shown) [compound 402],− (“−” indicates less than 50% inhibition at 10 μM),− (“−” indicates less than 50% inhibition at 10 μM),− (“−” indicates less than 50% inhibition at 10 μM),+ (“+” indicates greater than 50% inhibition at 10 μM),+ (“+” indicates greater than 50% inhibition at 10 μM),+ (“+” indicates greater than 50% inhibition at 10 μM),+ (“+” indicates greater than 50% inhibition at 10 μM),− (“−” indicates less than 50% inhibition at 10 μM),− (“−” indicates less than 50% inhibition at 10 μM),+ (“+” indicates greater than 50% inhibition at 10 μM),+ (“+” indicates greater than 50% inhibition at 10 μM),–,–,–,–,–,–,–,–,–,–
COCC1OC(OCc2ccc3ccccc3c2)C(NC(=O)CN)C(OCc2ccc(Cl)cc2)C1O (stereo not shown) [compound 235],–,–,–,–,–,–,–,–,–,–,–,+ (“+” indicates greater than 50% inhibition at 10 μM),− (“−” indicates less than 50% inhibition at 10 μM),− (“−” indicates less than 50% inhibition at 10 μM),− (“−” indicates less than 50% inhibition at 10 μM),− (“−” indicates less than 50% inhibition at 10 μM),− (“−” indicates less than 50% inhibition at 10 μM),+ (“+” indicates greater than 50% inhibition at 10 μM),− (“−” indicates less than 50% inhibition at 10 μM),− (“−” indicates less than 50% inhibition at 10 μM),A10: inhibition of radioligand binding (Human opioid (ORL1); FlashPlate): − (“−” indicates less than 50% inhibition at 10 μM); A5: inhibition of radioligand binding (Human melanocortin (MC5); FlashPlate): − (“−” indicates less than 50% inhibition at 10 μM)
CO[C@H]1[C@H](O)[C@@H](COCc2ccc3ccccc3c2)OC(OCCNC(=N)N)[C@@H]1NC(=O)c1ccccc1 (stereo partly shown) [compound 124],–,–,–,–,–,–,–,–,–,–,–,–,–,–,–,–,–,–,–,–,"A1 radioligand binding, percentage inhibition (Human δ-opioid (DOP)): − (“−” indicates less than 50% inhibition at 10 μM); A7 radioligand binding, percentage inhibition (Human μ-opioid (MOP)): − (“−” indicates less than 50% inhibition at 10 μM); A9 radioligand binding, percentage inhibition [1]: − (“−” indicates less than 50% inhibition at 10 μM); A3 radioligand binding, percentage inhibition (Human Melanocortin (MC3)): − (“−” indicates less than 50% inhibition at 10 μM); A6 radioligand binding, percentage inhibition ([2]; [125I]-S36057): − (“−” indicates less than 50% inhibition at 10 μM); A4 radioligand binding, percentage inhibition (Human Melanocortin (MC4)): − (“−” indicates less than 50% inhibition at 10 μM); A8 radioligand binding, percentage inhibition (Human neurokinin (NK1)): + (“+” indicates greater than 50% inhibition at 10 μM); A2 radioligand binding, percentage inhibition (Human κ-Opioid (KOP)): − (“−” indicates less than 50% inhibition at 10 μM); A11 radioligand binding, percentage inhibition (Mouse urotensin (mUR2)): − (“−” indicates less than 50% inhibition at 10 μM); A10 radioligand binding, percentage inhibition (Human opioid (ORL1)): − (“−” indicates less than 50% inhibition at 10 μM); A5 radioligand binding, percentage inhibition (Human melanocortin (MC5)): + (“+” indicates greater than 50% inhibition at 10 μM)"
COCC1OC(OCCc2ccccc2)C(NC(=O)CN)C(OCc2ccccc2)C1O (stereo not shown) [compound 214],–,–,–,–,–,–,–,–,–,–,–,− (“−” indicates less than 50% inhibition at 10 μM),− (“−” indicates less than 50% inhibition at 10 μM),− (“−” indicates less than 50% inhibition at 10 μM),− (“−” indicates less than 50% inhibition at 10 μM),− (“−” indicates less than 50% inhibition at 10 μM),− (“−” indicates less than 50% inhibition at 10 μM),+ (“+” indicates greater than 50% inhibition at 10 μM),− (“−” indicates less than 50% inhibition at 10 μM),− (“−” indicates less than 50% inhibition at 10 μM),A10: inhibition of radioligand binding (Human opioid (ORL1); FlashPlate): − (“−” indicates less than 50% inhibition at 10 μM); A5: inhibition of radioligand binding (Human melanocortin (MC5); FlashPlate): − (“−” indicates less than 50% inhibition at 10 μM)
NCCC(=O)NC1C(OCc2ccc3ccccc3c2)OC(COCc2ccc3ccccc3c2)C(O)C1OCc1ccc2ccccc2c1 (stereo not shown) [compound 384],− (“−” indicates less than 50% inhibition at 10 μM),− (“−” indicates less than 50% inhibition at 10 μM),− (“−” indicates less than 50% inhibition at 10 μM),+ (“+” indicates greater than 50% inhibition at 10 μM),+ (“+” indicates greater than 50% inhibition at 10 μM),+ (“+” indicates greater than 50% inhibition at 10 μM),+ (“+” indicates greater than 50% inhibition at 10 μM),− (“−” indicates less than 50% inhibition at 10 μM),− (“−” indicates less than 50% inhibition at 10 μM),− (“−” indicates less than 50% inhibition at 10 μM),+ (“+” indicates greater than 50% inhibition at 10 μM),–,–,–,–,–,–,–,–,–,–
